Test system: K24384-001-R-PDC complex spheroid growth
Assay: Anticancer human tumor K24384-001-R-PDC patient-derived pancreatic adenocarcinoma cell line growth inhibition [AhR]
Conditions: for IC50: curve of first compound; for viability, T/C: stronger effect = lower value; active means viability on the fitted dose curve at most 10% of control; inactive means the rest
Procedure, shortened: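 Agents were dosed in half-log steps down from roughly clinical Cmax, or from 10 microM where Cmax was unknown, alone and with AhR antagonists. Read-out: percent test/control growth of tumor spheroids containing HUVEC and MSC stromal cells.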
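Wherever viability, T/C is given: percent of DMSO vehicle-treated spheroid viability set as 100%.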

CC1COCCN1c1cc(C2(S(C)(=N)=O)CC2)nc(-c2ccnc3[nH]ccc23)n1 (stereo not given) + CC(CO)NC(=O)c1cc(-c2ccc(Cl)cc2)nn(-c2cnn(C)c2)c1=O
3.12 µM: IC50 (second compound 0.316 µM)
9.45 µM: IC50 (second compound 1 µM)
> 10 µM: IC50 (second compound 0.1 µM) | IC50 (second compound 10 µM)
inactive: viability, T/C (second compound 0.1 µM, first compound 0.0316 µM) 113% | viability, T/C (second compound 0.1 µM, first compound 0.1 µM) 128% | viability, T/C (second compound 0.1 µM, first compound 0.316 µM) 133% | viability, T/C (second compound 0.1 µM, first compound 1 µM) 77.7% | viability, T/C (second compound 0.1 µM, first compound 3.16 µM) 55.8% | viability, T/C (second compound 0.1 µM, first compound 10 µM) 42.8% | viability, T/C (second compound 0.316 µM, first compound 0.0316 µM) 136% | viability, T/C (second compound 0.316 µM, first compound 0.1 µM) 133% | viability, T/C (second compound 0.316 µM, first compound 0.316 µM) 136% | viability, T/C (second compound 0.316 µM, first compound 1 µM) 84.2% | viability, T/C (second compound 0.316 µM, first compound 3.16 µM) 52.7% | viability, T/C (second compound 0.316 µM, first compound 10 µM) 46.2% | viability, T/C (second compound 1 µM, first compound 0.0316 µM) 142% | viability, T/C (second compound 1 µM, first compound 0.1 µM) 139% | viability, T/C (second compound 1 µM, first compound 0.316 µM) 136% | viability, T/C (second compound 1 µM, first compound 1 µM) 103% | viability, T/C (second compound 1 µM, first compound 3.16 µM) 66.5% | viability, T/C (second compound 1 µM, first compound 10 µM) 48.6% | viability, T/C (second compound 3.16 µM, first compound 0.0316 µM) 125% | viability, T/C (second compound 3.16 µM, first compound 0.1 µM) 96.8% | viability, T/C (second compound 3.16 µM, first compound 0.316 µM) 132% | viability, T/C (second compound 3.16 µM, first compound 1 µM) 96.4% | viability, T/C (second compound 3.16 µM, first compound 3.16 µM) 53.1% | viability, T/C (second compound 3.16 µM, first compound 10 µM) 40.6% | viability, T/C (second compound 10 µM, first compound 0.0316 µM) 122% | viability, T/C (second compound 10 µM, first compound 0.1 µM) 125% | viability, T/C (second compound 10 µM, first compound 0.316 µM) 130% | viability, T/C (second compound 10 µM, first compound 1 µM) 107% | viability, T/C (second compound 10 µM, first compound 3.16 µM) 64% | viability, T/C (second compound 10 µM, first compound 10 µM) 53.9%
3.59 µM: IC50 (second compound 3.16 µM)

Source: PubChem BioAssay AID1919009 (Molecular Pharmacology Branch, DTP, NCI, 2023)
